This note sets out measurements from patent publication US10590132B2, “Selective estrogen receptor down-regulators” (AstraZeneca AB, priority 2017, dated 2020).

The series in a line: Human plasma protein binding (equilibrium dialysis). The format is in vitro ADME. Conditions: dialysis 18 hours. On the technique in general: Equilibrium dialysis compares concentrations on both sides of a semipermeable membrane.
Protocol: The automated equilibrium dialysis assay in human plasma uses the RED (Rapid Equilibrium Dialysis) Device and sample handling. The assay generally runs over two to three days including delivery of results. After dialysis for 18 hours, plasma and buffer samples are prepared for analysis by liquid chromatography and mass spectrometry. Samples are generally tested in singlicates and quantified by LC/MSMS by using a 7-point calibration curve in plasma. The compounds are pooled together in plasma pools up to 10 compounds. Three reference compounds are used in each run, Propranolol, Metoprolol and Warfarin. Warfarin is used as a control in each pool and Propranolol and Metoprolol are placed randomly in each run. An in-house Excel macro is used for preparation of files for the robot and the mass spectrometer and is also used for the calculations of fraction unbound (fu %) in plasma.
For `COc1ccc(NCCNCCCF)c(F)c1[C@@H]1c2[nH]c3ccccc3c2C[C@@H](C)N1CC(F)(F)F` [Example 90, N1-(2-fluoro-4-methoxy-3-((1R,3R)-3-methyl-2-(2,2,2-trifluoroethyl)-2,3,4,9-tetrahydro-1H-pyrido[3,4-b]indol-1-yl)phenyl)-N2-(3-fluoropropyl)ethane-1,2-diamine], the “Human plasma protein binding (% free)” value was determined as 1.1 % free. Consider `Cc1c(OCCNCCC(F)F)ccc(F)c1[C@@H]1c2[nH]c3ccc(F)cc3c2C[C@@H](C)N1C[C@@H](C)C(=O)O` [Example 162, (R)-3-((1R,3R)-1-(3-(2-((3,3-difluoropropyl)amino)ethoxy)-6-fluoro-2-methylphenyl)-6-fluoro-3-methyl-1,3,4,9-tetrahydro-2H-pyrido[3,4-b]indol-2-yl)-2-methylpropanoic Acid], for which the “Human plasma protein binding (% free)” value is listed as 27 % free. On to `C[C@@H]1Cc2c([nH]c3ccccc23)[C@@H](c2cccc(OCCNCCCF)c2C#N)N1CC(F)(F)F` [Example 69, 2-(2-((3-fluoropropyl)amino)ethoxy)-6-((1R,3R)-3-methyl-2-(2,2,2-trifluoroethyl)-2,3,4,9-tetrahydro-1H-pyrido[3,4-b]indol-1-yl)benzonitrile], for which the “Human plasma protein binding (% free)” value worked out at 2.2 % free. Take `C[C@@H]1Cc2c([nH]c3ccccc23)[C@@H](c2cc(OCCNCCCF)ccn2)N1CC(F)(F)F` [Example 35, 3-fluoro-N-(2-((2-((1S,3R)-3-methyl-2-(2,2,2-trifluoroethyl)-2,3,4,9-tetrahydro-1H-pyrido[3,4-b]indol-1-yl)pyridin-4-yl)oxy)ethyl)propan-1-amine]: the “Human plasma protein binding (% free)” value worked out at 5.4 % free.

As to `C[C@@H]1Cc2c([nH]c3ccccc23)[C@@H](c2c(Cl)ccc(OCCNCCCF)c2F)N1C[C@H](C)C(=O)O` [Example 54, (S)-3-((1R,3R)-1-(6-chloro-2-fluoro-3-(2-((3-fluoropropyl)amino)ethoxy)phenyl)-3-methyl-1,3,4,9-tetrahydro-2H-pyrido[3,4-b]indol-2-yl)-2-methylpropanoic acid], the “Human plasma protein binding (% free)” value was 18 % free. `Cc1c([C@@H]2c3[nH]c4ccccc4c3C[C@@H](C)N2C[C@H](C)C(=O)O)ccnc1OCCNCCCF` [Example 132, (S)-3-((1R,3R)-1-(2-2-((3-(fluoropropyl)amino)ethoxy)-3-methylpyridin-4-yl)-3-methyl-1,3,4,9-tetrahydro-2H-pyrido[3,4-b]indol-2-yl)-2-methylpropanoic acid]: the “Human plasma protein binding (% free)” value was determined as 34 % free. On to `C[C@@H]1Cc2c([nH]c3ccccc23)[C@@H](c2nccc(NCCNCCCF)c2F)N1CC(F)(F)F` [Example 94, N1-(3-fluoro-2-((1S,3R)-3-methyl-2-(2,2,2-trifluoroethyl)-2,3,4,9-tetrahydro-1H-pyrido[3,4-b]indol-1-yl)pyridin-4-yl)-N2-(3-fluoropropyl)ethane-1,2-diamine], for which the “Human plasma protein binding (% free)” value came out at 7 % free. Consider `Cc1ncc(OCCNCCCF)cc1[C@@H]1c2[nH]c3ccccc3c2C[C@@H](C)N1CC(F)(F)F` [Example 37, 3-fluoro-N-(2-((6-methyl-5-((1R,3R)-3-methyl-2-(2,2,2-trifluoroethyl)-2,3,4,9-tetrahydro-1H-pyrido[3,4-b]indol-1-yl)pyridin-3-yl)oxy)ethyl)propan-1-amine], for which the “Human plasma protein binding (% free)” value was 2.3 % free. As to `Cc1c(OCCNCCCF)ncnc1[C@@H]1c2[nH]c3ccccc3c2C[C@@H](C)N1CC(F)(F)F` [Example 114, 3-fluoro-N-(2-((5-methyl-6-((1S,3R)-3-methyl-2-(2,2,2-trifluoroethyl)-2,3,4,9-tetrahydro-1H-pyrido[3,4-b]indol-1-yl)pyrimidin-4-yl)oxy)ethyl)propan-1-amine], the “Human plasma protein binding (% free)” value is 1.7 % free.

Take `Cc1c(N(C)CCNCCCF)ccc(F)c1[C@@H]1c2[nH]c3ccccc3c2C[C@@H](C)N1C[C@H](C)C(=O)O` [Example 136, (S)-3-((1R,3R)-1-(6-fluoro-3-((2-((3-fluoropropyl)amino)ethyl)(methyl)amino)-2-methylphenyl)-3-methyl-1,3,4,9-tetrahydro-2H-pyrido[3,4-b]indol-2-yl)-2-methylpropanoic acid]: the “Human plasma protein binding (% free)” value is recorded as 2.1 % free. Turning to `CCc1ccc(OCCNCCCF)cc1[C@@H]1c2[nH]c3ccccc3c2C[C@@H](C)N1CC(F)(F)F` [Example 21, N-(2-(4-ethyl-3-((1R,3R)-3-methyl-2-(2,2,2-trifluoroethyl)-2,3,4,9-tetrahydro-1H-pyrido[3,4-b]indol-1-yl)phenoxy)ethyl)-3-fluoropropan-1-amine], the “Human plasma protein binding (% free)” value is reported as 0.10 % free. As for `COc1ccc(OCCNCCCF)c(C)c1[C@@H]1c2[nH]c3ccccc3c2C[C@@H](C)N1CC(F)(F)F` [Example 26, 3-fluoro-N-(2-(4-methoxy-2-methyl-3-((1R,3R)-3-methyl-2-(2,2,2-trifluoroethyl)-2,3,4,9-tetrahydro-1H-pyrido[3,4-b]indol-1-yl)phenoxy)ethyl)propan-1-amine], the “Human plasma protein binding (% free)” value was 0.22 % free. As for `C[C@@H]1Cc2c([nH]c3ccccc23)[C@@H](c2c(F)ccc(NCCNCCCF)c2F)N1CC(F)(F)F` [Example 88, N1-(2,4-difluoro-3-((1R,3R)-3-methyl-2-(2,2,2-trifluoroethyl)-2,3,4,9-tetrahydro-1H-pyrido[3,4-b]indol-1-yl)phenyl)-N2-(3-fluoropropyl)ethane-1,2-diamine], the “Human plasma protein binding (% free)” value is listed as 0.58 % free. For the compound `C[C@@H]1Cc2c([nH]c3ccccc23)[C@@H](c2cccc(OCCNCCCF)n2)N1CC(F)(F)F` [Example 34, 3-fluoro-N-(2-((6-((1S,3R)-3-methyl-2-(2,2,2-trifluoroethyl)-2,3,4,9-tetrahydro-1H-pyrido[3,4-b]indol-1-yl)pyridin-2-yl)oxy)ethyl)propan-1-amine], the “Human plasma protein binding (% free)” value was found to be 2.2 % free. As to `COc1ccc(OCCNCCCF)cc1[C@@H]1c2[nH]c3ccc(F)cc3c2C[C@@H](C)N1CC(F)(F)CO` [Example 46, 2,2-difluoro-3-((1R,3R)-6-fluoro-1-(5-(2-((3-fluoropropyl)amino)ethoxy)-2-methoxyphenyl)-3-methyl-1,3,4,9-tetrahydro-2H-pyrido[3,4-b]indol-2-yl)propan-1-ol], the “Human plasma protein binding (% free)” value was determined as 2.4 % free.

For the compound `C[C@@H]1Cc2c([nH]c3ccc(F)cc23)[C@@H](c2c(F)ccc(OCCNCCCF)c2F)N1CC(F)(F)CO` [Example 15, 3-((1R,3R)-1-(2,6-difluoro-3-(2-((3-fluoropropyl)amino)ethoxy)phenyl)-6-fluoro-3-methyl-1,3,4,9-tetrahydro-2H-pyrido[3,4-b]indol-2-yl)-2,2-difluoropropan-1-ol], the “Human plasma protein binding (% free)” value worked out at 3.2 % free. Consider `COc1ccc(OCCNCCC(F)(F)F)cc1[C@@H]1c2[nH]c3ccccc3c2C[C@@H](C)N1CC(F)(F)F` [Example 72, 3,3,3-trifluoro-N-(2-(4-methoxy-3-((1R,3R)-3-methyl-2-(2,2,2-trifluoroethyl)-2,3,4,9-tetrahydro-1H-pyrido[3,4-b]indol-1-yl)phenoxy)ethyl)propan-1-amine], for which the “Human plasma protein binding (% free)” value is recorded as under 0.1 % free. On to `Cc1c(N(C)CCN(C)CCCF)ccc(F)c1[C@@H]1c2[nH]c3ccccc3c2C[C@@H](C)N1C[C@H](C)C(=O)O` [Example 147, (S)-3-((1R,3R)-1-(6-fluoro-3-((2-((3-fluoropropyl)(methyl)amino)ethyl)(methyl)amino)-2-methylphenyl)-3-methyl-1,3,4,9-tetrahydro-2H-pyrido[3,4-b]indol-2-yl)-2-methylpropanoic acid], for which the “Human plasma protein binding (% free)” value was 19 % free. `COc1ccc(OCCNCCCF)c(F)c1[C@@H]1c2[nH]c3ccccc3c2C[C@@H](C)N1CC(F)(F)CO` [Example 81, 2,2-difluoro-3-((1R,3R)-1-(2-fluoro-3-(2-((3-fluoropropyl)amino)ethoxy)-6-methoxyphenyl)-3-methyl-1,3,4,9-tetrahydro-2H-pyrido[3,4-b]indol-2-yl)propan-1-ol]: the “Human plasma protein binding (% free)” value turned out to be 2.9 % free. On to `Cc1ccc2[nH]c3c(c2c1)C[C@@H](C)N(CC(F)(F)CO)[C@@H]3c1c(F)ccc(OCCNCCCF)c1F` [Example 63, 3-((1R,3R)-1-(2,6-difluoro-3-(2-((3-fluoropropyl)amino)ethoxy)phenyl)-3,6-dimethyl-1,3,4,9-tetrahydro-2H-pyrido[3,4-b]indol-2-yl)-2,2-difluoropropan-1-ol], for which the “Human plasma protein binding (% free)” value stood at 0.97 % free. For the compound `COc1ncc(OCCNCCCF)cc1[C@@H]1c2[nH]c3ccccc3c2C[C@@H](C)N1CC(F)(F)F` [Example 36, 3-fluoro-N-(2-((6-methoxy-5-((1R,3R)-3-methyl-2-(2,2,2-trifluoroethyl)-2,3,4,9-tetrahydro-1H-pyrido[3,4-b]indol-1-yl)pyridin-3-yl)oxy)ethyl)propan-1-amine], the “Human plasma protein binding (% free)” value is 2 % free. As to `Cc1c(OCCNCCCF)ncnc1[C@@H]1c2[nH]c3ccccc3c2C[C@@H](C)N1CC(F)(F)CO` [Example 115, 2,2-difluoro-3-((1S,3R)-1-(6-(2-((3-fluoropropyl)amino)ethoxy)-5-methylpyrimidin-4-yl)-3-methyl-1,3,4,9-tetrahydro-2H-pyrido[3,4-b]indol-2-yl)propan-1-ol], the “Human plasma protein binding (% free)” value amounted to 11 % free.

Consider `C[C@@H]1Cc2c([nH]c3ccccc23)[C@@H](c2nccc(OCCNCCCF)c2F)N1CC(F)(F)CO` [Example 97, 2,2-difluoro-3-((1S,3R)-1-(3-fluoro-4-(2-((3-fluoropropyl)amino)ethoxy)pyridin-2-yl)-3-methyl-1,3,4,9-tetrahydro-2H-pyrido[3,4-b]indol-2-yl)propan-1-ol], for which the “Human plasma protein binding (% free)” value was 6.8 % free. Consider `C[C@@H]1Cc2c([nH]c3ccccc23)[C@@H](c2c(Cl)ccc(OCCNCCCF)c2Cl)N1C[C@H](C)C(=O)O` [Example 128, (S)-3-((1R,3R)-1-(2,6-dichloro-3-(2-((3-fluoropropyl)amino)ethoxy)phenyl)-3-methyl-1,3,4,9-tetrahydro-2H-pyrido[3,4-b]indol-2-yl)-2-methylpropanoic acid], for which the “Human plasma protein binding (% free)” value is listed as 15 % free.
